Measurements: patent US20250263496A1, “Neutrophil-Activating Therapy for the Treatment of Cancer” (The Board of Trustees of the Leland Stanford Junior …, priority 2024, published 2025)

Tests used:
B16 cells = assay: Mouse in vitro cytotoxicity (EuTDA), B16 cells co-cultured with neutrophils; type: cell-based; details: for effect of agent on ex vivo killing of tumor cells by neutrophils: neutrophils from treated tumors stimulated with neutrophil-activating therapy
Procedure: B16 tumors were treated by intratumoral injection of TNF+anti-CD40+anti-gp75 and harvested 12 hours post-treatment. Tumors were dissected away from any surrounding fat, minced, and digested in 5 mg/ml collagenase IV (Worthington) plus 0.1 mg/ml DNase I (Sigma) with continuous mixing by magnetic stir bars for 20 minutes at 37° C. in RPMI-1640 (Gibco) with 2% FBS. Following digestion, tissue was mashed through a […] cell strainer (Falcon) and washed. For some studies, bone marrow was harvested by grinding bones from tumor-naive untreated mice in a mortar and pestle and mashing through a […] strainer (Falcon). Neutrophils were isolated from tumor and bone marrow samples with the MojoSort Mouse Ly6G Selection Kit (BioLegend), according to the manufacturer's instructions, and used in the cytotoxicity assay.
Cytotoxicity assays were conducted using the EuTDA assay from the DELFIA TRF cytotoxicity kit (PerkinElmer) according to the manufacturer's instructions. Briefly, B16 cells were labeled for 10 minutes with BATDA, and 5×10^3 labeled cells were added per well to a 96 well V-bottom plate in RPMI-1640. Neutrophils were added at a ratio of 10:1 unless otherwise stated. All co-cultures were conducted in the presence of TNF (10 ng/ml), anti-CD40 (1 μg/ml), anti-gp75 (1 μg/ml), and 10% active mouse C57BL/6 complement serum (Innovative Research), except where indicated otherwise. Mouse C57BL/6 complement serum was heat-inactivated for 40 minutes at 57° C. where inactivation is specified. In some experiments, mouse IgG2a isotype control (1 μg/ml, isotype control for anti-gp75, clone C1.18.4, Bio X Cell), anti-mouse CD16/CD32 (10 μg/ml, clone 2.4G2, Bio X Cell), recombinant mouse C5a (50 nM, R&D Systems), anti-C5a (25 μg/ml, clone 295108, R&D Systems), rat IgG2a isotype control (25 μg/ml, isotype control for anti-C5a, clone 2A3, Bio X Cell), anti-C5AR1 (5 μg/ml, clone 20/70, BioLegend), rat IgG2b isotype control (5 μg/ml, isotype control for anti-C5AR1, clone LTF-2, Bio X Cell), SC57461A (10 μM, Cayman Chemical), CP-105696 (1 μM, Sigma), topiroxostat (10 μM, MedChem Express), or DMSO (vehicle for SC57461A, CP-105696, and topiroxostat) were added to the wells with the B16 and neutrophils. After 4 hours of co-culture at 37° C., supernatant was taken from the wells, Europium solution was added, and TDA released from lysed B16 cells was detected by […] on a Victor X4 fluorescence microplate reader (PerkinElmer). Percent maximal lysis was determined by calculating the specific release of TDA using the formula: (experimental release−spontaneous release)/(maximum release −spontaneous release), where spontaneous release was determined by wells containing no neutrophils and maximum release was determined by wells with lysis buffer added.
For trogocytosis studies investigating transfer of tumor-binding antibody, anti-gp75 labeled with AF647 (clone TA99, Novus Biologicals) was used in place of unlabeled anti-gp75. For studies investigating transfer of B16 cell membrane, DiD′ Solid (ThermoFisher Scientific) was reconstituted in DMSO at 10 mg/ml and diluted to a working solution of 5 μg/ml in serum-free DMEM. B16 cells were labeled in this solution for 20 minutes at 37° C. at 1×10^6 cells/ml. Labeled B16 was washed 3 times in warm media before being added to the co-culture wells with the neutrophils. Following co-culture, flow cytometry was used to identify DiD signal in neutrophils.

B16 tumors = assay: TUNEL staining of cell death in B16 tumors; type: in vivo, mouse; details: agent given prior to neutrophil-activating therapy
Procedure: Tumors were dissected away from surrounding fat, fixed in 2% paraformaldehyde for 2 hours at 4° C., equilibrated in a 30% sucrose solution at 4° C., and embedded and frozen in O.C.T. Compound (Tissue-Tek). Slides were cut to […] and blocked with 1% BSA and 10% serum matched to the secondary antibody species. The following antibodies were used for immunofluorescence: PE anti-Ly6G (clone 1A8, BioLegend), DyLight 650 anti-gp75 (clone TA99, Bio X Cell, labeled using DyLight 650 NHS Ester (Thermo Scientific)), fluorescein anti-gp75 (clone TA99, Bio X Cell, labeled using NHS-Fluorescein (Thermo Scientific)), FITC anti-DNA/RNA damage (clone 15A3, recognizing 8-hydroxy-2′-deoxyguanosine/8-oxo-7,8-dihydroguanine/8-oxo-7,8-dihydroguanosine, Abcam), and AF647 anti-C3 (clone 11H9, Novus Biologicals). DAPI (Invitrogen) was stained at 1 μg/ml. FITC/fluorescein signal was amplified using AF488 anti-FITC (ThermoFisher Scientific), and PE was amplified using biotin anti-PE (clone PE001, BioLegend) followed by DyLight 594 streptavidin (BioLegend) or DyLight 649 streptavidin (BioLegend). Prior to use of biotinylated antibodies, endogenous biotin was blocked using the Avidin/Biotin Blocking Kit (Vector Laboratories). Prior to DNA/RNA damage staining, sections were permeabilized with 0.1% Triton X-100 in 0.1% sodium citrate. TUNEL (Terminal deoxynucleotidyl transferase dUTP nick end labeling) staining was performed using the In Situ Cell Death Detection Kit, TMR Red (Roche) according to the manufacturer's instructions. […] All parameters that were quantified were acquired with identical microscope settings and adjusted identically in Photoshop, and all adjustments were applied equally across the entire tumor. Quantification was performed in ImageJ, using the wand tool on the overlaid multichannel image to draw a border around the tumor and then measuring the percent area within that border with signal for the channel of the marker quantified.

naive neutrophils = assay: Mouse in vitro neutrophil stimulations; type: cell-based
Procedure: Mouse in vitro neutrophil stimulations. Bone marrow was harvested by grinding bones in a mortar and pestle and mashing through a […] strainer (Falcon). Neutrophils were isolated by negative selection with the MojoSort Mouse Neutrophil Isolation Kit (BioLegend). Following isolation, neutrophils were plated in Opti-MEM (Gibco) at 1×10^5 cells in 100 μl and stimulated with 10 ng/ml TNF, 1 μg/ml anti-CD40, 1 μg/ml anti-gp75, and/or 50 nM recombinant mouse C5a (R&D Systems) for 30 minutes at 37° C. After 30 minutes, the supernatant was collected, centrifuged to remove cells and debris, and analyzed for LTB4 using the Leukotriene B4 ELISA kit (Cayman Chemical 520111) as described above. Additionally, stimulated neutrophils were stained for activation markers and analyzed by flow cytometry as described above.

O=C(O)C1(c2ccc3c(c2)OC[C@H](Cc2ccc(-c4ccccc4)cc2)[C@H]3O)CCCC1 [CP-105696]
effect of agent on ex vivo killing of tumor cells by neutrophils (B16 cells): prevented ex vivo killing of tumor cells

N[C@@H](CCC(=O)N[C@@H](CS)C(=O)NCC(=O)O)C(=O)O [GSH, Reduced L-glutathione]
effect of agent on treatment-induced tumor cell death (B16 tumors): decreased tumor cell death in vivo
effect of agent on ex vivo killing of tumor cells by neutrophils (B16 cells): blocked ex vivo killing of tumor cells

CN(CCCOc1ccc(Cc2ccccc2)cc1)CCC(=O)O.Cl [SC57461A]
effect of agent on treatment-induced tumor cell death (B16 tumors): prevented treatment-induced tumor cell death
effect of agent on ex vivo killing of tumor cells by neutrophils (B16 cells): prevented ex vivo killing of tumor cells

B1: C5a: recombinant mouse C5a (R&D Systems) (protein, UniProt P06684 679-755, looked up)
C5a anaphylatoxin: NLHLLRQKIEEQAAKYKHSVPKKCCYDGARVNFYETCEERVARVTIGPLCIRAFNECCTIANKIRKESPHKPVQLGR
modifications: C5a anaphylatoxin
requirement for ex vivo killing of B16 cells by tumor-infiltrating neutrophils (B16 cells): required C5a or serum containing functional complement
neutrophil activation (naive neutrophils; in vitro): activated neutrophils
LTB4 production by neutrophils (naive neutrophils; in vitro stimulation): induced LTB4

B2: catalase: enzyme neutralizing hydrogen peroxide (C40, Sigma) (protein, UniProt P00432 2-527, looked up)
Catalase: ADNRDPASDQMKHWKEQRAAQKPDVLTTGGGNPVGDKLNSLTVGPRGPLLVQDVVFTDEMAHFDRERIPERVVHAKGAGAFGYFEVTHDITRYSKAKVFEHIGKRTPIAVRFSTVAGESGSADTVRDPRGFAVKFYTEDGNWDLVGNNTPIFFIRDALLFPSFIHSQKRNPQTHLKDPDMVWDFWSLRPESLHQVSFLFSDRGIPDGHRHMNGYGSHTFKLVNANGEAVYCKFHYKTDQGIKNLSVEDAARLAHEDPDYGLRDLFNAIATGNYPSWTLYIQVMTFSEAEIFPFNPFDLTKVWPHGDYPLIPVGKLVLNRNPVNYFAEVEQLAFDPSNMPPGIEPSPDKMLQGRLFAYPDTHRHRLGPNYLQIPVNCPYRARVANYQRDGPMCMMDNQGGAPNYYPNSFSAPEHQPSALEHRTHFSGDVQRFNSANDDNVTQVRTFYLKVLNEEQRKRLCENIAGHLKDAQLFIQKKAVKNFSDVHPEYGSRIQALLDKYNEEKPKNAVHTYVQHGSHLSAREKANL
effect of agent on ex vivo killing of tumor cells by neutrophils (B16 cells): blocked ex vivo killing of tumor cells
